From patent US12295963B2, “Treating pain associated with diabetic peripheral neuropathy” (MEDICON PHARMACEUTICALS, INC., priority 2021, dated 2025)
Read-outs that look alike come from different tables or passages of the source.

Tests used:
[1] = system: mechanical allodynia in STZ-induced DPN rats; experiment: Treatment of neuropathic pain in STZ-induced rat model of DPN, paw withdrawal threshold (von Frey filaments); format: in vivo, Sprague-Dawley rats; conditions: for effect on PWT compared to vehicle (treatment study): established DPN, result in words
Protocol: DPN was induced via chemically-induced increases in blood glucose in rats, using streptozotocin (STZ). This is a well-established model for DPN (see Morrow, Current Protocols in Neuroscience (2004); 29(1): 1-11), in which the STZ, an antibiotic extract from Streptomyces acromogenes, selectively damages the β cells of the pancreas.
Sprague-Dawley rats were fasted for 4-6 hours before being injected intraperitoneally with 45 mg/kg STZ. This was performed for all experimental groups, except the naïve group. In order to prevent hypoglycaemic death, rats received 10% sucrose water as the sole water source for the first 48 hours after injection. In order to ensure only those rats considered diabetic (i.e., having non-fasting plasma glucose levels of >250 mg/dL) were included in the study, blood glucose was measured at 72 hours after the STZ injection.
This delay between STZ injection and treatment allows the establishment of chronic pain (allodynia) associated with peripheral and central sensitisation. PS (as an 8% hydrogel) or vehicle control were administered topically to both hind paws of the rats 3 times a day for 3 weeks starting at week 4 after STZ injection. […] 5% lidocaine cream (a positive control) was applied only once to both hind paws of the rats 30 minutes before measurement of PWT.
The rats were split into 8 study groups, with those in the experimental groups (1-4) having an average body weight of about 225 g, and those in the control groups (5-8) having an average body weight of about 335 g, as follows: • 1. Group 1: naïve rats (n=5) • 2. Group 2: STZ only (n=6) • 3. Group 3: STZ plus vehicle (n=6) • 4. Group 4: STZ plus PS (8% hydrogel) (n=7) • 5. Group 5: STZ plus oral vehicle (n=8) • 6. […] Group 7: STZ plus 5% lidocaine cream (n=8) • 8.
In order to determine the outcome of the treatment, mechanical allodynia was measured using the well-established method of von Frey filaments. In particular, a simplified up-down method for estimating paw withdrawal threshold (PWT) using von Frey filaments was used (as described in Bonin et al., Molecular Pain (2014); 10(26):1-10)). The results of the PWT test are expressed as force applied (gm).

[2] = system: mechanical allodynia in STZ-induced DPN rats; experiment: Prevention of neuropathic pain in STZ-induced rat model of DPN, paw withdrawal threshold (von Frey filaments); format: in vivo; conditions: prevention protocol; for von Frey, gm mean ± SEM (PWT): PS 8% hydrogel or sulindac 0.7% hydrogel topical 3 times a day from day -2 to day 28, lidocaine 5% cream once 30 min before PWT, PWT on day 28; for effect on PWT compared to vehicle (prevention study): day 28, result in words
Description: DPN was induced via chemically-induced increases in blood glucose in rats, using streptozotocin (STZ).
The animal model corresponds to that used for Example 1, but using a prevention protocol. As in Example 1, the outcome measure, determining the effect of the treatment on the prevention of mechanical allodynia, was the PWT test, using von Frey filaments. The measurements were taken at day −3, before treatment or induction of neuropathic pain associated with DPN, and again at the end of the study period (day 28).
The rats were randomised into treatment groups as follows, all having an average body weight of about 225 g. • 1. Group 1: naïve rats (n=6) • 2. Group 2: STZ only (n=8) • 3. Group 3: STZ plus vehicle (n=8) • 4. Group 4: STZ plus PS 8% (n=8) • 5. […] Group 6: STZ plus lidocaine cream 5% (n=8)
Each treatment group was subjected to a PWT assessment at day −3 in order to determine the baseline of mechanical allodynia. […] For those rats in the lidocaine treatment group, lidocaine cream was applied only once to both hind paws of the rats 30 min before the final PWT measurement on day 28. On day 0, neuropathic pain associated with DPN was induced with the administration of STZ, and the blood glucose was checked on day 3. Four weeks after the administration of STZ, to provide sufficient time to allow the neuropathic pain associated with DPN (manifested as mechanical allodynia) to develop (see the STZ only group in FIG. 5), the rats were subjected to the paw withdrawal threshold test.

[3] = Pharmacokinetics and biodistribution of PS and its metabolites after topical administration to hind paws; conditions: for AUC0-24h of PS / Tmax of PS / T1/2 of PS / Cmax: 50 μl per hind paw; for Cmax: read-out: Cmax of PS, mean ± SEM
Protocol: PS 8% ointment was applied topically to each hind paw (50 μl per paw) with gentle rubbing. At 0.5, 1, 3, 5, 12, 18, and 24 h, mice (n=4-5 mice/time point) were euthanized with CO2 inhalation. Blood was drawn immediately after death. Tissues, including paw skin, paw muscle, leg muscle, the sciatic nerve and lumbar DRG bilaterally were dissected quickly, immediately frozen in liquid nitrogen and stored at −80° C. until analyzed.
Following addition of acetonitrile (twice the volume of the homogenate), the mixture was sonicated for 10 min, centrifuged at 13,200 rpm for 15 min, and analyzed by HPLC, as reported (Wen et al., 2019).
Since the metabolism and PK/biodistribution of PS vary depending on its route of administration, we studied both in normal mice in which PS was administered topically to their hind paws, with particular attention to the sciatic nerve and the dorsal root ganglia (DRG) that are affected in DPN.

[4] = dorsal root ganglia (DRG), normal mice, PS 8% ointment topical
[5] = leg muscle, normal mice, PS 8% ointment topical
[6] = paw muscle, normal mice, PS 8% ointment topical
[7] = paw skin, normal mice, PS 8% ointment topical
[8] = sciatic nerve (SN), normal mice, PS 8% ointment topical
[9] = treatment protocol from week 4, sulindac 0.7% hydrogel topical 3 times a day for 1 week (PWT week 5), lidocaine 5% cream once 30 min before PWT, pregabalin 10 mg/kg oral once 1 h before PWT

With phosphosulindac [PS] as the compound, how does the “effect on PWT compared to vehicle (treatment study)” value [1] read?
Its value is “significant increase in PWT compared to vehicle and STZ”.

What about the “PWT, gm Mean ± SEM” value ([1]; treatment protocol, PS 8% hydrogel topically to both hind paws 3 times a day for 3 weeks from week 4 after STZ, PWT at week 7, 30 min after last treatment) of the same compound?
The value was 22.5 ± 2.20 gm.

What about the “von Frey, gm mean ± SEM (PWT)” value [2] of the same compound?
The value was 33.1 ± 1.6 gm.

And the “effect on PWT compared to vehicle (prevention study)” value [2]?
Its value is “significant increase in PWT compared to vehicle”.

And the “PS in the systemic circulation” value ([3]; blood, normal mice, PS 8% ointment topical, limit of quantitation 0.1 μM)?
The value was “no PS was detected”.

What about the “AUC0-24h of PS” value [3, 4] of the same compound?
Its value is 4.5 µM·h.

And the “Tmax of PS” value [3, 4]?
The value was 18 h.

What about the “AUC0-24h of PS” value [3, 5] of the same compound?
Its value is 171.6 µM·h.

What about the “T1/2 of PS” value [3, 5] of the same compound?
Its value is 20.6 h.

And the “Tmax of PS” value [3, 5]?
Its value is 0.5 h.

And the “Tmax of PS in all tissues with the exception of DRG” value ([3]; normal mice, PS 8% ointment topical)?
Its value is 0.5 h.

What about the “AUC0-24h of PS” value [3, 6] of the same compound?
The value was 411.2 µM·h.

What about the “T1/2 of PS” value [3, 6] of the same compound?
Its value is 11.4 h.

And the “Tmax of PS” value [3, 6]?
The value was 0.5 h.

And the “AUC0-24h of PS” value [3, 7]?
Its value is 1,609.8 μM · h.

And the “T1/2 of PS” value [3, 7]?
The value was 16.1 h.

What about the “Tmax of PS” value [3, 7] of the same compound?
The value was 0.5 h.

What about the “t1/2 of PS in the skin and the muscles” value ([3]; range over paw skin, paw muscle, leg muscle, normal mice, PS 8% ointment topical) of the same compound?
The value was 11.4 to 20.6 h.

And the Cmax [3, 4]?
Its Cmax is 0.3 ± 0.1 µM.

And the Cmax [3, 5]?
Its Cmax is 35 ± 3.6 µM.

And the Cmax [3, 6]?
The Cmax was 102 ± 4.6 µM.

And the Cmax [3, 7]?
The Cmax was 195 ± 5.3 µM.

What about the Cmax [3, 8] of the same compound?
The Cmax was 0.9 ± 0.1 µM.

What about the “AUC0-24h of PS” value [3, 8] of the same compound?
The value was 12.0 µM·h.

And the “T1/2 of PS” value [3, 8]?
The value was 57.4 h.

What about the “Tmax of PS” value [3, 8] of the same compound?
The value was 0.5 h.

For CC1=C(CC(=O)O)c2cc(F)ccc2/C1=C\c1ccc([S+](C)[O-])cc1 (stereo not drawn) [sulindac], which “effect on PWT compared to vehicle (treatment study)” value [1] is on record?
The value was “failed to suppress the reduced PWT caused by STZ”.

What about the “PWT, gm Mean ± SEM” value [1, 9] of the same compound?
Its value is 23.2 ± 2.6 gm.

What about the “von Frey, gm mean ± SEM (PWT)” value [2] of the same compound?
The value was 27.7 ± 1.4 gm.

What about the “effect on PWT compared to vehicle (prevention study)” value [2] of the same compound?
Its value is “no significant effect on PWT compared to the vehicle”.

Which “detection as metabolite of PS” value ([3]; mouse tissues and blood after PS 8% ointment topical, HPLC, limit of quantitation 0.05 μM) does the source give for CC1=C(CC(=O)O)c2cc(F)ccc2/C1=C\c1ccc(S(C)(=O)=O)cc1 [sulindac sulfone] here?
The value was “detected”.

Which “effect on PWT compared to vehicle (treatment study)” value [1] does the source give for CC(C)C[C@H](CN)CC(=O)O [pregabalin] here?
Its value is “significant increases in PWT compared to vehicle”.

What does the source list for CCN(CC)CC(=O)Nc1c(C)cccc1C [lidocaine]?
effect on PWT compared to vehicle (treatment study) [1]: significant increases in PWT compared to vehicle; PWT, gm Mean ± SEM [1, 9]: 26.0 ± 1.8 gm; von Frey, gm mean ± SEM (PWT) [2]: 34.3 ± 1.6 gm; effect on PWT compared to vehicle (prevention study) [2]: significantly increased the PWT compared to vehicle
